US5817668A, “S-heteroatom containing alkyl substituted-3-oxo-pyrido[1,2-A]benzimidozole-4-carboxamide derivatives useful in treating central nervous system disorders” (Ortho Pharmaceutical Corporation, priority 1997, dated 1998)
pIC50: −log10 of the molar value. Like-named read-outs stand apart in the source and are kept apart here.

How the values were obtained:
[1] = molecular target: benzodiazepine site of the GABA-A receptor; experiment: Benzodiazepine receptor binding: inhibition of 3H-flunitrazepam binding to prepared receptor membranes; conditions: read-out: GABAA Receptor Binding IC50; 3H-flunitrazepam ca. 3 nM, 10-20 min, 25 °C; >10,000 = not active
[2] = system: metrazol-induced convulsions in male CD1 mice; experiment: Suppression of metrazol-induced clonic convulsions in adult male mice; format: in vivo, mouse (male CD1); conditions: Mus musculus, 0.5 h, >30 = active dose not determined
Experimental: […] Water was not withheld except during the period of observations. […] Metrazol was dissolved in 0.9% sodium chloride solution, and its dose volume was 10 ml/kg. Animals were housed individually for observation of clonic convulsions, tonic convulsions and death for a period of 30 min. […] The biological assay was considered to be valid if the effects of a known anticonvulsant (positive control) were detected, within the same experiment. Activity was reported as percent reduction of clonic convulsions from the vehicle group.

[3] = system: behavior suppressed by punishment (conflict) in male rats; experiment: Suppression of anxiety in adult male rat (punished-licking conflict test, Vogel); format: in vivo; conditions: minimum effective dose, >10 = active dose not yet determined; for minimal effective dose: Rattus norvegicus
Experimental: Male rats were deprived of water for 48 hours and were deprived of food for 24 hours prior to testing. After the first 24 hours of water deprivation, they were placed in the conflict chamber for a training period; wherein, they were allowed 200 unpunished licks from a bottle containing tap water. The experiment was run the next day. At the expected time of peak activity, the animals were placed in the chamber and allowed access to tap water. […] Their first lick initiates a 3-min test session. Subsequently,every 20th lick was punished by a 0.2-s shock delivered via the stainless-steel drinking-tube.
The Wilcoxon rank-sum test (Mann-Whitney U-test) was used to test for an increase (p<0.05, 1-tailed) in the median number of shocks in drug-treatedgroups, compared to a concurrently run vehicle-treated group. The biological assay is considered to be valid if the effects of a known anxiolytic (positive control) are detected, within the same experiment.

[4] = ip, ip, read-out: Mouse Metrazol ED50, ip
[5] = po, po, read-out: Mouse Metrazol ED50, po
[6] = po, read-out: Rat Conflict MED, po
[7] = ip, read-out: Rat Conflict MED, ip

Compound | pIC50 [1] | ED50 [2, 4] | ED50 [2, 5] | minimal effective dose [3, 6] | minimal effective dose [3, 7] | Rat Conflict MED, po ([3]; po)
CN1CCCC(N2C3=C(C(=O)Nc4c(F)cccc4F)C(=O)CCN3c3ccc(F)cc32)C1 (centres unmarked) [Compound 86] | 7.58 | > 10 mg/kg | > 30 mg/kg | > 10 mg/kg | 10 mg/kg | 
CC(=O)OCCN1C2=C(C(=O)Nc3ccccc3F)C(=O)CCN2c2ccc(F)cc21 [Compound 119, 7-Fluoro-1,2-dihydro-5-(2-acetoxyethyl)-3-oxo-N-(2-fluorophenyl)pyrido[1,2-a]benzimidazole-4-carboxamide] | 9.60 |  |  |  |  | 
CCOCN1C2=C(C(=O)Nc3ccccc3F)C(=O)CCN2c2c1ccc(F)c2F [Compound 128] | 6.90 | ≥ 1 mg/kg | > 30 mg/kg | > 10 mg/kg |  | 
COCCN1C2=C(C(=O)Nc3nccs3)C(=O)CCN2c2ccc(F)cc21 [Compound 140] |  |  |  |  |  | > 10 mg/kg
COCCN1C2=C(C(=O)Nc3nccs3)C(=O)CCN2c2ccc(F)cc21 [Compound 155] |  |  |  |  |  | 3 mg/kg

Continued, in another order:

pIC50 [1] | Compound | ED50 [2, 4] | ED50 [2, 5] | minimal effective dose [3, 6] | minimal effective dose [3, 7] | Rat Conflict MED, po ([3]; po)
8.21 | O=C1CCN2C(=C1C(=O)Nc1ccccc1F)N(CCNC(=O)c1ccccc1)c1cc(F)ccc12 [Compound 46] |  |  |  |  | 
8.07 | COc1ccc(NC(=O)C2=C3N(CC#N)c4cc(F)ccc4N3CCC2=O)cc1 [Compound 82] | < 1 mg/kg | > 30 mg/kg | > 10 mg/kg |  | 
10.14 | C#CCN1C2=C(C(=O)Nc3ccccc3F)C(=O)CCN2c2ccc(F)cc21 [Compound 85] | 0.006 mg/kg | 1 mg/kg | 1 mg/kg | < 10 mg/kg | 
9.32 | CCOCCN1C2=C(C(=O)Nc3ccccc3F)C(=O)CCN2c2ccc(F)cc21 [Compound 160] | < 1 mg/kg | 0.3 mg/kg | 1 mg/kg | < 10 mg/kg | 
7.80 | O=C1CCN2C(=C1C(=O)Nc1ccccc1F)N(CC(O)CO)c1cc(F)ccc12 (centres unmarked) [Compound 162, 7-Fluoro-1,2-dihydro-5-[2,3-dihydroxypropyl]-3-oxo-N-(2-fluorophenyl)pyrido[1,2-a]benzimidazole-4-carboxamide] |  |  |  |  | 
8.21 | C[S+]([O-])CCN1C2=C(C(=O)Nc3ccccc3F)C(=O)CCN2c2ccc(F)cc21 (centres unmarked) [Compound 183, 7-Fluoro-1,2-dihydro-5-[2-(methylsulfoxy)ethyl]-3-oxo-N-(2-fluorophenyl)pyrido[1,2-a]benzimidazole-4-carboxamide] |  |  |  |  | 
